Laboratory results published in the supplement of paper PMC10307832.

Experiments:
Assay in all cases: relative viability (nuclei count vs DMSO), 5 days (fraction); higher = more cells survive
EPLC-272H = test system: EPLC-272H
Method in brief: (§1)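 Lung cancer cell lines were seeded in 1536-well plates and dosed by pin tool the next day, with either a single drug or a fixed anchor-drug dose combined with five library-drug doses (not always all listed) spaced in √10 steps. Five days later, one step fixed the cells and stained their nuclei (final 0.05% Triton X-100, 1% formaldehyde, 1 ug/ml Hoechst), and nuclei were counted on 4× images. Relative viability is the nuclei count in treated wells divided by the count in vehicle wells, and each value is the median of duplicate plates.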

A-427 = test system: A-427
Method in brief: as §1

EKVX = test system: EKVX
Method in brief: as §1

LXF-289 = test system: LXF-289
Method in brief: as §1

HCC-827 = test system: HCC-827
Method in brief: as §1

NCI-H1650 = test system: NCI-H1650
Method in brief: as §1

SW 1573 = test system: SW 1573
Method in brief: as §1

COR-L23 = test system: COR-L23
Method in brief: as §1

NCI-H460 = test system: NCI-H460
Method in brief: as §1

NCI-H1651 = test system: NCI-H1651
Method in brief: as §1

NCI-H2126 = test system: NCI-H2126
Method in brief: as §1

HCC-44 = test system: HCC-44
Method in brief: as §1

NCI-H1915 = test system: NCI-H1915
Method in brief: as §1

NCI-H2087 = test system: NCI-H2087
Method in brief: as §1

201T = test system: 201T
Method in brief: as §1

LCLC-103H = test system: LCLC-103H
Method in brief: as §1

BEN = test system: BEN
Method in brief: as §1

EMC-BAC-2 = test system: EMC-BAC-2
Method in brief: as §1

NCI-H596 = test system: NCI-H596
Method in brief: as §1

NCI-H2347 = test system: NCI-H2347
Method in brief: as §1

Compound: O=C(O)CCCCC(CCSCc1ccccc1)SCc1ccccc1 (centres undefined) [CPI-613] + CC(C)C[C@H](NC(=O)[C@H](Cc1ccccc1)NC(=O)c1cnccn1)B(O)O [Bortezomib] (partner 0.002 µM)
- relative viability (EPLC-272H; first compound 5 µM): 0.937
- relative viability (EPLC-272H; first compound 15.81 µM): 0.859
- relative viability (EPLC-272H; first compound 50 µM): 1.1
- relative viability (EPLC-272H; first compound 158.11 µM): 0.778
- relative viability (EPLC-272H; first compound 500 µM): 0.93
- relative viability (A-427; first compound 5 µM): 0.939
- relative viability (A-427; first compound 15.81 µM): 0.901
- relative viability (A-427; first compound 50 µM): 0.96
- relative viability (A-427; first compound 158.11 µM): 0.761
- relative viability (A-427; first compound 500 µM): 0.253
- relative viability (EKVX; first compound 5 µM): 0.864
- relative viability (EKVX; first compound 15.81 µM): 0.957
- relative viability (EKVX; first compound 50 µM): 1.05
- relative viability (EKVX; first compound 158.11 µM): 0.548
- relative viability (EKVX; first compound 500 µM): 1.04
- relative viability (LXF-289; first compound 5 µM): 0.981
- relative viability (LXF-289; first compound 15.81 µM): 1.03
- relative viability (LXF-289; first compound 50 µM): 0.94
- relative viability (LXF-289; first compound 158.11 µM): 0.554
- relative viability (LXF-289; first compound 500 µM): 0.069
- relative viability (HCC-827; first compound 5 µM): 0.923
- relative viability (HCC-827; first compound 15.81 µM): 1.02
- relative viability (HCC-827; first compound 50 µM): 0.926
- relative viability (HCC-827; first compound 158.11 µM): 0.916
- relative viability (HCC-827; first compound 500 µM): 0.786
- relative viability (NCI-H1650; first compound 5 µM): 0.196
- relative viability (NCI-H1650; first compound 15.81 µM): 0.204
- relative viability (NCI-H1650; first compound 50 µM): 0.187
- relative viability (NCI-H1650; first compound 158.11 µM): 0.0869
- relative viability (NCI-H1650; first compound 500 µM): 0.0195
- relative viability (SW 1573; first compound 5 µM): 0.951
- relative viability (SW 1573; first compound 15.81 µM): 0.985
- relative viability (SW 1573; first compound 50 µM): 0.979
- relative viability (SW 1573; first compound 158.11 µM): 0.884
- relative viability (SW 1573; first compound 500 µM): 0.802
- relative viability (COR-L23; first compound 5 µM): 0.938
- relative viability (COR-L23; first compound 15.81 µM): 0.941
- relative viability (COR-L23; first compound 50 µM): 1
- relative viability (COR-L23; first compound 158.11 µM): 0.408
- relative viability (COR-L23; first compound 500 µM): 0.0074
- relative viability (NCI-H460; first compound 5 µM): 1.07
- relative viability (NCI-H460; first compound 15.81 µM): 1.12
- relative viability (NCI-H460; first compound 50 µM): 0.895
- relative viability (NCI-H460; first compound 158.11 µM): 0.445
- relative viability (NCI-H460; first compound 500 µM): 0.0063
- relative viability (NCI-H1651; first compound 5 µM): 0.91
- relative viability (NCI-H1651; first compound 15.81 µM): 0.9
- relative viability (NCI-H1651; first compound 50 µM): 0.866
- relative viability (NCI-H1651; first compound 158.11 µM): 0.914
- relative viability (NCI-H1651; first compound 500 µM): 1
- relative viability (NCI-H2126; first compound 5 µM): 1.11
- relative viability (NCI-H2126; first compound 15.81 µM): 1.06
- relative viability (NCI-H2126; first compound 50 µM): 1.04
- relative viability (NCI-H2126; first compound 158.11 µM): 0.669
- relative viability (NCI-H2126; first compound 500 µM): 0.761
- relative viability (HCC-44; first compound 5 µM): 0.878
- relative viability (HCC-44; first compound 15.81 µM): 0.832
- relative viability (HCC-44; first compound 50 µM): 0.913
- relative viability (HCC-44; first compound 158.11 µM): 0.596
- relative viability (HCC-44; first compound 500 µM): 0.0155
- relative viability (NCI-H1915; first compound 5 µM): 0.992
- relative viability (NCI-H1915; first compound 15.81 µM): 0.99
- relative viability (NCI-H1915; first compound 50 µM): 0.946
- relative viability (NCI-H1915; first compound 158.11 µM): 0.799
- relative viability (NCI-H1915; first compound 500 µM): 0.746
- relative viability (NCI-H2087; first compound 5 µM): 0.838
- relative viability (NCI-H2087; first compound 15.81 µM): 0.725
- relative viability (NCI-H2087; first compound 50 µM): 0.827
- relative viability (NCI-H2087; first compound 158.11 µM): 0.33
- relative viability (NCI-H2087; first compound 500 µM): 0.016
- relative viability (201T; first compound 5 µM): 1.08
- relative viability (201T; first compound 15.81 µM): 1.03
- relative viability (201T; first compound 50 µM): 1.09
- relative viability (201T; first compound 158.11 µM): 0.995
- relative viability (201T; first compound 500 µM): 0.949
- relative viability (LCLC-103H; first compound 5 µM): 1.08
- relative viability (LCLC-103H; first compound 15.81 µM): 0.94
- relative viability (LCLC-103H; first compound 50 µM): 0.966
- relative viability (LCLC-103H; first compound 158.11 µM): 0.985
- relative viability (LCLC-103H; first compound 500 µM): 1.06
- relative viability (BEN; first compound 5 µM): 0.819
- relative viability (BEN; first compound 15.81 µM): 0.539
- relative viability (BEN; first compound 50 µM): 0.633
- relative viability (BEN; first compound 158.11 µM): 0.708
- relative viability (BEN; first compound 500 µM): 0.658
- relative viability (EMC-BAC-2; first compound 5 µM): 1.06
- relative viability (EMC-BAC-2; first compound 15.81 µM): 0.993
- relative viability (EMC-BAC-2; first compound 50 µM): 1.07
- relative viability (EMC-BAC-2; first compound 158.11 µM): 0.936
- relative viability (EMC-BAC-2; first compound 500 µM): 0.4
- relative viability (NCI-H596; first compound 5 µM): 0.972
- relative viability (NCI-H596; first compound 15.81 µM): 0.934
- relative viability (NCI-H596; first compound 50 µM): 1
- relative viability (NCI-H596; first compound 158.11 µM): 0.779
- relative viability (NCI-H596; first compound 500 µM): 0.208
- relative viability (NCI-H2347; first compound 5 µM): 0.606
- relative viability (NCI-H2347; first compound 15.81 µM): 0.833
- relative viability (NCI-H2347; first compound 50 µM): 1.2
- relative viability (NCI-H2347; first compound 500 µM): 1
